Results on 2 compounds are retold here after patent publication US20170101438A1, “COSMETIC OR PHARMACEUTICAL METHODS FOR THE TREATMENT AND/OR CARE OF THE SKIN AND/OR HAIR USING TRIPEPTIDES CAPABLE OF STIMULATING CYCLIC ADENOSINE MONOPHOSPHATE SYNTHESIS” (Lipotec, S.A., priority 2009, published 2017).

Experiment [1] has as its system human G361 melanocyte cell line. Put plainly: cAMP synthesis stimulation assay (competitive ELISA). It counts as cell-based. As to conditions: G361 cells, normalized to average basal cAMP values. The procedure: cAMP synthesis stimulation was assessed in the human G361 melanocyte cell line in the presence of the peptides of the invention. The cells were seeded (10^6 cells/plate 25 cm^2) and incubated for 24 hours in McCoy's complete medium, after which the peptides were added to 10 μM and were incubated for another 24 hours. 40 μM forskolin was used as a positive control. The cells were centrifuged and the supernatants were collected, and the cAMP levels were determined by carrying out a competitive ELISA assay following the protocols of the commercial kit (Cayman, Ref 0.581001)
On the technique in general: In an ELISA, binding on a coated surface is turned into a signal by an enzyme label.

For experiment [2] the test system is unchanged. Put plainly: Melanogenesis stimulation (melanin extracted, absorbance at 470 nm). It counts as cell-based. As to conditions: 4 days, G361 cells, normalized to number of cells. The procedure: A human G361 melanocyte cell line was incubated for 4 days on a 12-well plate in presence of the peptide at various concentrations, after which the cells were trypsinized, the melanin was extracted and was quantified by measuring the absorbance at 470 nm in a spectrophotometer. The values obtained were normalized with regards to the number of cells. The concentration of melanin was determined in pg/cell using a standard regression analysis obtained with synthetic melanin at known concentrations.

With Palm-L-Tyr-L-Tyr-L-Met-NH2, the cAMP increase in experiment [1] (peptide 10 μM, 24 hours) stood at 57%. Moreover, the Melanin synthesis stimulation is 64% in experiment [2] (10 μM), 79% in experiment [2] (50 μM) and 138% in experiment [2] (100 μM).

In the case of `C=C[C@@]1(C)CC(=O)[C@]2(O)[C@@]3(C)[C@@H](O)CCC(C)(C)[C@@H]3[C@H](O)[C@H](OC(C)=O)[C@@]2(C)O1` [Forskolin, reference compound], the cAMP increase in experiment [1] (positive control 40 μM) was 117%.
